Results: paper PMC10979849 (bioRxiv, 2024)

Biological target: T1, wild-type (WT) Octβ2R (Drosophila melanogaster, UniProt Q4LBB9)
T1 sequence (Q4LBB9 1-536): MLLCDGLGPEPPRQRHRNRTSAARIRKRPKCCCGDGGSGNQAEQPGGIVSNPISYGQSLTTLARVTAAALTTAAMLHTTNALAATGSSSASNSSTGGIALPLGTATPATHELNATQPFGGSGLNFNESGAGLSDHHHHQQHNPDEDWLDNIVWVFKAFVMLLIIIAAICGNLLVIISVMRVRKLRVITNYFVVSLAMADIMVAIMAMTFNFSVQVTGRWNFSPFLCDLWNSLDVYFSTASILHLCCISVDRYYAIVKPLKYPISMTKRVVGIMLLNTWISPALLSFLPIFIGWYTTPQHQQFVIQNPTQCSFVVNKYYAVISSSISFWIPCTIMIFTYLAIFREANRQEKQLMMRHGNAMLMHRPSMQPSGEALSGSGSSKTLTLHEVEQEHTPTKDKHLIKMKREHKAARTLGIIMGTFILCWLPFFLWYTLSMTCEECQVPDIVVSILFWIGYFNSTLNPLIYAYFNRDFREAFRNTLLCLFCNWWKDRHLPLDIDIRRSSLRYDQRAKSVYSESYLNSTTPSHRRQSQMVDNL
Test: Tango β-arrestin assay
Assay type: cell-based
Details: agonist; OA 1 nM to 100 μM, ~16 h (Tango)

## NC[C@H](O)c1ccc(O)cc1 [Octopamine]
  Tango β-arrestin assay (HTLA cells); RFlamp cAMP assay (HEK293T): negligible β-arrestin-dependent signaling compared to cells expressing WT Octβ2R, even at high concentrations of OA
